Data as given in EP0908457B1, “3-(1,2-benzisothiazol- and isoxazol-5-Y1)-2,4(1H,3H)-pyrimidinedione or thione and 3-(1,2-benzisothiazol- and isoxazol-5-y1)-4(3H)-pyrimidinone or thione herbicidal agents” (BASF AKTIENGESELLSCHAFT, priority 1997, dated 1999).

Tests used:
[1] = tested on: Monochoria vaginalis, Presl.; experiment: Preemergence weed control under flooded paddy conditions, MOOVA (Monochoria); assay type: in vivo; conditions: preemergence, flooded paddy, rated three to four weeks after treatment
Cyperus iria = experiment: Preemergence weed control under flooded paddy conditions, CYPIR (Rice Flatsedge); assay type: in vivo; conditions: preemergence, flooded paddy, rated three to four weeks after treatment
[2] = tested on: Cyperus serotinus, Rottb.; experiment: Preemergence weed control under flooded paddy conditions, CYPSE (Flatsedge); assay type: in vivo; conditions: preemergence, rated three to four weeks after treatment
[3] = tested on: Oryza sativa, (L.) Tebonnet; experiment: Rice tolerance to post-transplant applications under flooded paddy conditions (Example 187), ORYSAT (Rice, Tebonnet); conditions: rated three to four weeks after treatment
Sagittaria pygmaea, L. = experiment: Preemergence weed control under flooded paddy conditions, SAGPY (Arrowhead (Pygmaea)); assay type: in vivo; conditions: preemergence, flooded paddy, rated three to four weeks after treatment
[4] = tested on: Echinochloa oryzoides (Ard.) Fritsch.; experiment: Preemergence weed control under flooded paddy conditions, ECHORC (Watergrass (Calif.)); assay type: in vivo; conditions: preemergence, flooded paddy, rated three to four weeks after treatment
Also: meaning of each grade not given here.

Cn1c(C(F)(F)F)cc(=O)n(-c2ccc3snc(COS(=O)(=O)c4ccccc4)c3c2)c1=O [Example 382, 2,4(1H,3H)-Pyrimidinedione, 3-[3-(hydroxymethyl)-1,2-benzisothiazol-5-yl]-1-methyl-6-(trifluoromethyl)-, benzenesulfonate (ester)]
herbicidal effect rating, MOOVA ([1]; Rate 0.0320 kg/ha): 9.0
herbicidal effect rating, MOOVA ([1]; Rate 0.0620 kg/ha): 9.0
herbicidal effect rating, MOOVA ([1]; Rate 0.1250 kg/ha): 9.0
herbicidal effect rating, MOOVA ([1]; Rate 0.2500 kg/ha): 9.0
herbicidal effect rating, CYPIR (Cyperus iria; Rate 0.0320 kg/ha): 5.0
herbicidal effect rating, CYPIR (Cyperus iria; Rate 0.0620 kg/ha): 6.0
herbicidal effect rating, CYPIR (Cyperus iria; Rate 0.1250 kg/ha): 7.0
herbicidal effect rating, CYPIR (Cyperus iria; Rate 0.2500 kg/ha): 9.0
herbicidal effect rating, CYPSE ([2]; Rate 0.0320 kg/ha): 0.0
herbicidal effect rating, CYPSE ([2]; Rate 0.0620 kg/ha): 0.0
herbicidal effect rating, CYPSE ([2]; Rate 0.1250 kg/ha): 7.0
herbicidal effect rating, CYPSE ([2]; Rate 0.2500 kg/ha): 7.0
herbicidal effect rating ORYSAT ([3]; Rate 0.0320 kg/ha): 5.0
herbicidal effect rating ORYSAT ([3]; Rate 0.0620 kg/ha): 6.0
herbicidal effect rating ORYSAT ([3]; Rate 0.1250 kg/ha): 6.0
herbicidal effect rating ORYSAT ([3]; Rate 0.2500 kg/ha): 5.0
herbicidal effect rating, SAGPY (Sagittaria pygmaea, L.; Rate 0.0320 kg/ha): 3.0
herbicidal effect rating, SAGPY (Sagittaria pygmaea, L.; Rate 0.0620 kg/ha): 4.0
herbicidal effect rating, SAGPY (Sagittaria pygmaea, L.; Rate 0.1250 kg/ha): 7.0
herbicidal effect rating, SAGPY (Sagittaria pygmaea, L.; Rate 0.2500 kg/ha): 9.0
herbicidal effect rating, ECHORC ([4]; Rate 0.0320 kg/ha): 0.0
herbicidal effect rating, ECHORC ([4]; Rate 0.0620 kg/ha): 3.0
herbicidal effect rating, ECHORC ([4]; Rate 0.1250 kg/ha): 4.0
herbicidal effect rating, ECHORC ([4]; Rate 0.2500 kg/ha): 7.0

CCS(=O)(=O)NC(=O)c1nsc2ccc(-n3c(=O)cc(C(F)(F)F)n(C)c3=O)cc12 [Example 383, 1,2-Benzisothiazole-3-carboxamide, 5-[3,6-dihydro-3-methyl-2,6-dioxo-4-(trifluoromethyl)-1(2H)-pyrimidinyl]-N-(ethylsulfonyl)-]
herbicidal effect rating, MOOVA ([1]; Rate 0.0320 kg/ha): 9.0
herbicidal effect rating, MOOVA ([1]; Rate 0.0620 kg/ha): 9.0
herbicidal effect rating, MOOVA ([1]; Rate 0.1250 kg/ha): 9.0
herbicidal effect rating, MOOVA ([1]; Rate 0.2500 kg/ha): 9.0
herbicidal effect rating, CYPIR (Cyperus iria; Rate 0.0320 kg/ha): 2.5
herbicidal effect rating, CYPIR (Cyperus iria; Rate 0.0620 kg/ha): 7.0
herbicidal effect rating, CYPIR (Cyperus iria; Rate 0.1250 kg/ha): 7.0
herbicidal effect rating, CYPIR (Cyperus iria; Rate 0.2500 kg/ha): 8.0
herbicidal effect rating, CYPSE ([2]; Rate 0.0320 kg/ha): 4.5
herbicidal effect rating, CYPSE ([2]; Rate 0.0620 kg/ha): 5.5
herbicidal effect rating, CYPSE ([2]; Rate 0.1250 kg/ha): 7.5
herbicidal effect rating, CYPSE ([2]; Rate 0.2500 kg/ha): 9.0
herbicidal effect rating ORYSAT ([3]; Rate 0.0320 kg/ha): 3.5
herbicidal effect rating ORYSAT ([3]; Rate 0.0620 kg/ha): 4.5
herbicidal effect rating ORYSAT ([3]; Rate 0.1250 kg/ha): 6.0
herbicidal effect rating ORYSAT ([3]; Rate 0.2500 kg/ha): 6.5
herbicidal effect rating, SAGPY (Sagittaria pygmaea, L.; Rate 0.0320 kg/ha): 3.0
herbicidal effect rating, SAGPY (Sagittaria pygmaea, L.; Rate 0.0620 kg/ha): 7.5
herbicidal effect rating, SAGPY (Sagittaria pygmaea, L.; Rate 0.1250 kg/ha): 9.0
herbicidal effect rating, SAGPY (Sagittaria pygmaea, L.; Rate 0.2500 kg/ha): 9.0
herbicidal effect rating, ECHORC ([4]; Rate 0.0320 kg/ha): 4.0
herbicidal effect rating, ECHORC ([4]; Rate 0.0620 kg/ha): 6.5
herbicidal effect rating, ECHORC ([4]; Rate 0.1250 kg/ha): 7.5
herbicidal effect rating, ECHORC ([4]; Rate 0.2500 kg/ha): 8.0

CC#CCOC(=O)c1nsc2ccc(-n3c(=O)cc(C(F)(F)F)n(C)c3=O)cc12 [Example 384, 1,2-Benzisothiazole-3-carboxylic acid, 5-[3,6-dihydro-3-methyl-2,6-dioxo-4-(trifluoromethyl)-1(2H)-pyrimidinyl]-, 2-butynyl ester]
herbicidal effect rating, MOOVA ([1]; Rate 0.0320 kg/ha): 9.0
herbicidal effect rating, MOOVA ([1]; Rate 0.0620 kg/ha): 9.0
herbicidal effect rating, MOOVA ([1]; Rate 0.1250 kg/ha): 9.0
herbicidal effect rating, MOOVA ([1]; Rate 0.2500 kg/ha): 9.0
herbicidal effect rating, CYPIR (Cyperus iria; Rate 0.0320 kg/ha): 4.0
herbicidal effect rating, CYPIR (Cyperus iria; Rate 0.0620 kg/ha): 7.0
herbicidal effect rating, CYPIR (Cyperus iria; Rate 0.1250 kg/ha): 8.0
herbicidal effect rating, CYPIR (Cyperus iria; Rate 0.2500 kg/ha): 8.0
herbicidal effect rating, CYPSE ([2]; Rate 0.0320 kg/ha): 7.0
herbicidal effect rating, CYPSE ([2]; Rate 0.0620 kg/ha): 7.0
herbicidal effect rating, CYPSE ([2]; Rate 0.1250 kg/ha): 7.0
herbicidal effect rating, CYPSE ([2]; Rate 0.2500 kg/ha): 7.0
herbicidal effect rating ORYSAT ([3]; Rate 0.0320 kg/ha): 4.0
herbicidal effect rating ORYSAT ([3]; Rate 0.0620 kg/ha): 4.0
herbicidal effect rating ORYSAT ([3]; Rate 0.1250 kg/ha): 7.0
herbicidal effect rating ORYSAT ([3]; Rate 0.2500 kg/ha): 6.0
herbicidal effect rating, SAGPY (Sagittaria pygmaea, L.; Rate 0.0320 kg/ha): 5.0
herbicidal effect rating, SAGPY (Sagittaria pygmaea, L.; Rate 0.0620 kg/ha): 6.0
herbicidal effect rating, SAGPY (Sagittaria pygmaea, L.; Rate 0.1250 kg/ha): 6.0
herbicidal effect rating, SAGPY (Sagittaria pygmaea, L.; Rate 0.2500 kg/ha): 6.0
herbicidal effect rating, ECHORC ([4]; Rate 0.0320 kg/ha): 2.0
herbicidal effect rating, ECHORC ([4]; Rate 0.0620 kg/ha): 4.0
herbicidal effect rating, ECHORC ([4]; Rate 0.1250 kg/ha): 4.0
herbicidal effect rating, ECHORC ([4]; Rate 0.2500 kg/ha): 6.0

CCSCCOC(=O)c1nsc2ccc(-n3c(=O)cc(C(F)(F)F)n(C)c3=O)cc12 [Example 385, 1,2-Benzisothiazole-3-carboxylic acid, 5-[3,6-dihydro-3-methyl-2,6-dioxo-4-(trifluoromethyl)-1(2H)-pyrimidinyl]-, 2-(ethylthio)ethyl ester]
herbicidal effect rating, MOOVA ([1]; Rate 0.0320 kg/ha): 9.0
herbicidal effect rating, MOOVA ([1]; Rate 0.0620 kg/ha): 9.0
herbicidal effect rating, MOOVA ([1]; Rate 0.1250 kg/ha): 9.0
herbicidal effect rating, MOOVA ([1]; Rate 0.2500 kg/ha): 9.0
herbicidal effect rating, CYPIR (Cyperus iria; Rate 0.0320 kg/ha): 4.0
herbicidal effect rating, CYPIR (Cyperus iria; Rate 0.0620 kg/ha): 6.0
herbicidal effect rating, CYPIR (Cyperus iria; Rate 0.1250 kg/ha): 6.0
herbicidal effect rating, CYPIR (Cyperus iria; Rate 0.2500 kg/ha): 9.0
herbicidal effect rating, CYPSE ([2]; Rate 0.0320 kg/ha): 6.0
herbicidal effect rating, CYPSE ([2]; Rate 0.0620 kg/ha): 6.0
herbicidal effect rating, CYPSE ([2]; Rate 0.1250 kg/ha): 7.0
herbicidal effect rating, CYPSE ([2]; Rate 0.2500 kg/ha): 7.0
herbicidal effect rating ORYSAT ([3]; Rate 0.0320 kg/ha): 3.0
herbicidal effect rating ORYSAT ([3]; Rate 0.0620 kg/ha): 5.0
herbicidal effect rating ORYSAT ([3]; Rate 0.1250 kg/ha): 7.0
herbicidal effect rating ORYSAT ([3]; Rate 0.2500 kg/ha): 7.0
herbicidal effect rating, SAGPY (Sagittaria pygmaea, L.; Rate 0.0320 kg/ha): 0.0
herbicidal effect rating, SAGPY (Sagittaria pygmaea, L.; Rate 0.0620 kg/ha): 0.0
herbicidal effect rating, SAGPY (Sagittaria pygmaea, L.; Rate 0.1250 kg/ha): 9.0
herbicidal effect rating, SAGPY (Sagittaria pygmaea, L.; Rate 0.2500 kg/ha): 9.0
herbicidal effect rating, ECHORC ([4]; Rate 0.0320 kg/ha): 0.0
herbicidal effect rating, ECHORC ([4]; Rate 0.0620 kg/ha): 3.0
herbicidal effect rating, ECHORC ([4]; Rate 0.1250 kg/ha): 3.0
herbicidal effect rating, ECHORC ([4]; Rate 0.2500 kg/ha): 6.0
